System: PGD2 induced eosinophil shape change
Assay: Human whole blood eosinophil shape change assay
Format: cell-based
Settings: Homo sapiens, Eosinophil, 10 nm PGD2-induced eosinophil shape change, human whole blood; read-out: Whole Blood IC50
Experimental: Human Whole Blood Eosinophil Shape Change Assay
Compounds 1 to 3 were assayed for their effect on PGD2 induced eosinophil shape change and were compared with Comparator Compounds A to G.
Shape Change Assay in Whole Blood
Compounds (1 μl, 200× final concentration) were added directly to 200 μl whole blood, mixed well and incubated for 15 min, 37° C., 5% CO2. After this time, cell shape was fixed by addition of 300 μl Cytofix™ buffer (BD Biosciences), 15 min on ice. 10 ml RBC lysis buffer was added to the fixed cells, incubated 5 min, at room temperature and centrifuged, 300×g for 5 min. Supernatant (containing lysed red cells) was removed and the lysis step was repeated. Leukocytes were resuspended in 250 μl RPMI/10% FCS and shape change analysed by FACS. Eosinophils were gated out based on their autofluorescence and 2000 eosinophil events were counted per sample. Data were analysed in triplicate.

IC50 [nM] | Structure (SMILES)
273 | Cc1c(Cc2ccc(S(=O)(=O)c3ccccc3)cc2)c2cc(F)ccc2n1CC(=O)O [Compound C, 2-{5-Fluoro-2-methyl-3-[4-(phenylsulfonyl)benzyl]-1H-indol-1-yl}acetic acid]
494 | Cc1c(Cc2ccc(S(=O)(=O)c3ccc(Cl)cc3)cc2)c2cc(F)ccc2n1CC(=O)O [Compound D, 2-{3-[4-(4-chlorophenylsulfonyl)benzyl]-5-fluoro-2-methyl-1H-indol-1-yl}acetic acid]
71 | Cc1c(Cc2ccc(S(=O)(=O)c3ccc(F)cc3)cc2)c2cc(F)ccc2n1CC(=O)O [Compound E, 2-{5-Fluoro-3-[4-(4-fluorophenylsulfonyl)benzyl]-2-methyl-1H-indol-1-yl}acetic acid]
1500 | Cc1c(Cc2cccc(S(=O)(=O)c3ccccc3)c2)c2cc(F)ccc2n1CC(=O)O [Compound F, 2-{5-Fluoro-2-methyl-3-[3-(phenylsulfonyl)benzyl]-1H-indol-1-yl}acetic acid]
4660 | Cc1c(Cc2cccc(S(=O)(=O)c3ccc(Cl)cc3)c2)c2cc(F)ccc2n1CC(=O)O [Compound G, 2-{3-[3-(4-chlorophenylsulfonyl)benzyl]-5-fluoro-2-methyl-1H-indol-1-yl}acetic acid]
